Legend:
[1] = test system: TGF-beta signal transduction; details: p-SMAD2 western blot (Gaspar et al., 2007); cited from earlier work
[2] = test system: human glioma cells HTZ-349 and A-172; experiment: cell-mediated tumor cytotoxicity assay, calcein release (CARE-LASS); assay type: cell-based; details: PBMC and target cells preincubated 6 days with SD-208, IL-2 and GM-CSF; effector/target 1:100, 1:10, 1:1; 4 hours; FIG. 2
Protocol: Establishment and culture of primary tumor cell cultures were performed as previously described (Jachimczak et al., 1993). Briefly, tumor specimens were cultivated in Dulbecco's minimum essential medium (DMEM) containing 10% FCS, 1% BME vitamin solution, and 1% MEM nonessential amino acids. HTZ-349 was established as primary cell culture from a patient suffering from glioblastoma multiforme (GBM, Grade IV). A-172 cells were obtained from ATCC (GBM). Peripheral blood mononuclear cells (PBMC) were isolated from venous blood of two healthy donors by standard Ficoll-Hypaque gradient centrifugation (Jachimczak et al., 1993).
PBMC were activated with IL-2 (Proleukin S) and GM-CSF. Immune cell cytotoxicity against the target tumor cells was determined in a calcein-release assay (Lichtenfels et al., 1994) by adding pre-activated PBMC to glioma target cells at an effector/target ratio of 1:100, 1:10 and 1:1. After 4 hours, fluorescence of supernatants was analyzed (Fluoroscan, Germany) and calculated as described (Lichtenfels et al., 1994).

Fc1ccc(Cl)cc1-c1nc(Nc2ccncc2)c2nccnc2n1 [SD-208]
inhibition of TGF-beta signal transduction [1]: inhibits TGF-beta signal transduction in a dose-dependent fashion
allogenous cell cytotoxicity against glioma target cells [2]: enhanced

From patent US20170216401A1, “COMBINATION FOR USE IN A METHOD OF TREATING CANCER” (priority 2014, published 2017)
